# Experimental data as given in PMC9418147, “Identification and structure-based drug design of cell-active inhibitors of interleukin 17A at a novel C-terminal site” (Scientific Reports, 2022).
# Where “and” joins values, the source holds several entries; their conditions need not be identical. Equal entries are not always repeated. Entries after “also recorded” stand apart in the source; their conditions may differ. Where two headings read alike, the source gives them in different places.
# Experiments:
# [1] = tested on: TNF-only stimulated HeLa reporter cells; experiment: TNF-only stimulated HeLa-LCN2 luciferase reporter cells; type: cell-based; conditions: Homo sapiens, read-out: TNF-only stimulated cell IC50
# Description: (§1) The promoter of the IL17 target gene lipocalin 2 (LCN2) inserted into pGL4-luciferase vector (pGL4[luc2P/LCN2/Hygro], obtained from Promega) was used to generate a stable clone in HeLa cells (ATCC) using hygromycin. In response to IL17 stimulation the increase in LCN2-luciferase gene transcription can be monitored using the luciferase reporter assay as described below. The reporter cells (HeLa-LCN2) were cultured in Dulbecco's modified Eagle's medium supplemented with 10% (v/v) fetal bovine serum, 0.2 mg/mL hygromycin, and 1% penicillin and streptomycin. Cells were maintained at 37 °C in a humidified atmosphere of 5% CO2. The assay media contained Dulbecco's modified Eagle's medium supplemented with 0.5% Charcoal-stripped FBS and 1% penicillin and streptomycin. About 7500 cells per well were plated in 40 ul assay media in a 384-well black plate (Grenier, #781,090) for 16 h. Then cells were stimulated with IL17A (10 ng/mL) and TNF (20 ng/mL) for 6 h at 37 °C and 5% CO2. The supernatant was removed and 25 µL of One-Glo reagent (#E6110, Promega) was added to the wells and luminescence was measured using Envision multimode plate reader. Background signal was measured using the same protocol by stimulating cells with TNF (20 ng/mL) in the absence of IL17A. All inhibition experiments were normalized against DMSO control containing no inhibitor. Example raw data are shown in Supplementary Fig. 10B.
# [2] = tested on: IL17A/TNF stimulated HeLa cells carrying an LCN2 promoter-driven luciferase reporter; experiment: IL17A/TNF stimulated HeLa-LCN2 luciferase reporter cells; type: cell-based; conditions: for IC50: Homo sapiens, HeLa LCN2 luciferase reporter, IL17A and TNF, read-out: IL17A/TNF stimulated cell IC50
# Description: as §1
# IL17A-IL17RA-Fc complex = biological target: T1, IL17A-IL17RA-Fc complex (Homo sapiens, UniProt Q16552); experiment: IL17A-IL17RA-Fc AlphaLISA assay; type: biochemical
# T1 construct: purchased R&D Systems
# Description: (§2) AlphaLISA technology was used to understand the ability of compounds to inhibit IL17A binding to IL17 receptor (IL17RA). Compounds of interest were diluted in 100% DMSO and plated in a 384 well white proxiplate (Perkin Elmer) using Echo Acoustic Liquid Handler (LabCyte Sunnydale, CA). To the compound plate, 4 µL of biotinylated IL17A (R&D systems) and 2 µL of IL17RA-Fc (R&D Systems) was added, to provide a final concentration of 1 nM of IL17RA-Fc and IL17A, respectively. The assay was carried out in 100 mM Tris, 0.01% Tween-20, 0.1% BSA, pH 8.0. The assay mixture was allowed to incubate at room temperature for 60 min, after which, 2 µL of protein A AlphaLISA acceptor beads (#AL101M, PerkinElmer) was added to a final concentration of 7.5 µg/mL for 60 min. To the plate, 2 µL of streptavidin donor beads (#6,760,002, PerkinElmer) was added to a final concentration of 7.5 µg/mL. The plate was allowed to incubate for one hour at room temperature, then loaded into the Envision multimode plate reader (Perkin Elmer). AlphaLISA TruHits Kits (#AL900D, PerkinElmer) were used to assess potential false positives. All inhibition experiments were normalized against DMSO control containing no inhibitor. Example raw data are shown in Supplementary Fig. 10A.
# [3] = tested on: T2, IL17A-IL17RA interactions; experiment: SPR competition assay: IL17A +/- inhibitor over immobilized IL17RA; type: binding; conditions: IL17A +/- inhibitor injected over immobilized IL17RA
# T2 construct: IL17A WT (34–155)C129S and Truncated (34–148)C129S was injected; Trx-6His (N, cleaved yes); made in house; host or cells: Escherichia coli Shuffle T7 express (NEB) for IL17A
# Description: (§3) To interrogate IL17A—IL17RA binding and the effect of compound binding to IL17A for interaction with IL17RA, Biotinylated Avi tag IL17RA was immobilized using CAP chip. IL17A WT protein with and without compounds was injected over the immobilized IL17RA surface. The surface was regenerated using mixture of 8 M Guanidine Hydrochloride and 1 M Sodium Hydroxide. To profile both IL17A WT and truncated-IL17A binding to IL17RA, Fc tag IL17RA (Sino Biological) was captured on immobilized anti-Fc (Human Fc from Pierce) surface. IL17A WT (34–155)C129S and Truncated (34–148)C129S was injected at flow rate of 80 µL/min for contact time of 180 s and dissociation was monitored for 1200 s. The surface was regenerated with 2 consecutive injections (60 s and 10 s at 60 µL/min) of 10 mM Glycine, pH 1.5.
# Supplemental Figure 6: C-terminal binding site compounds can disrupt IL17A binding to its receptor in SPR competition assay. Biotinylated Avi-tagged IL17RA was captured on CAP chip; IL17A +/- inhibitor samples were injected over immobilized IL17RA . Cmpd 1 was used as the positive control. [picture]
# [4] = AlphaLISA TruHits counter screen for false positives; conditions: AlphaLISA non-specific effects; read-out: TruHits counterscreen IC50
# Description: as §2
# IL17A [5] = biological target: T3, IL17A (Homo sapiens, UniProt Q16552); experiment: Compound binding to IL17A via surface plasmon resonance (SPR); conditions: for Kd: binding to IL17A
# T3 construct: Biotinylated Avi-tag IL17A-(24–155) was produced by enzymatic biotinylation; 6His-MBP (N, cleaved yes); made in house; host or cells: Escherichia coli Shuffle T7 express (NEB)
# Description: Compounds were assayed via Surface Plasmon Resonance (SPR) using Biacore T200 instrument and Biacore 4000 [Formerly GE Healthcare (now Cytiva Life Sciences)]. […] Sensorgrams were processed (including solvent correction) and analyzed using Biacore T200 and Biacore 4000 evaluation software. The binding curves were fit to determine the equilibrium dissociation constant (KD) and kinetic constants (kon and koff).
# Supplemental Figure 2: Measurement for binding of IL17A inhibitors by Surface Plasmon Resonance (SPR).
# IL17A [6] = biological target: T3, IL17A; experiment: Fluorescence polarization competition assay with FP probe Cmpd 11; type: binding; conditions: for Competition for IL17A with FP probe: probe Cmpd 11
# Description: Fluorescence polarization (FP) assays were performed in black shallow 384-well micro plates (ProxiPlate – 384 F Plus, PerkinElmer) using Envision multimode plate reader (Perkin-Elmer). Polarization was measured by using an excitation filter of 485 nm and an emission filter of 535 nm. Each well was flashed 50 times, and the average values were used. Briefly, 5 µL of IL17A (20 nM) diluted in the assay buffer (50 mM Tris pH 8.0, 0.001% Tween) was added to compound containing wells and incubated for 60 min. To this, 5 µL of the FP probe (10 nM) was added and the reaction mixture was incubated for 120 min at room temperature prior to measuring FP. All inhibition experiments were normalized against DMSO control containing no inhibitor.
# IL17RA = biological target: T4, IL17RA (Homo sapiens, UniProt Q96F46); experiment: SPR of IL17A WT and truncated IL17A binding to IL17RA; conditions: IL17A construct binding to IL17RA
# T4 construct: purchased Sino Biological
# Description: as §3
# IL17A [7] = biological target: T5, IL17A (Homo sapiens, UniProt Q16552, C129S); experiment: 2D NMR titration of compound binding to IL17A
# T5 construct: For crystallography, NMR and early SPR studies, IL17A (34–155)C129S; Trx-6His (N, cleaved yes); made in house; host or cells: Escherichia coli Shuffle T7 express (NEB)
# Description: NMR spectra were acquired on either a Bruker 500 MHz AVANCE III spectrometer or a Bruker 600 MHz AVANCE III HD spectrometer, both with cryoprobes, on 60 µM protein samples in 20 mM deuterated TRIS buffer, pH 8.0, with 150 mM NaCl. For fragment screening, fragments were added from a concentrated DMSO stock to a concentration of 1 mM in the NMR tube. As described above, fragments were initially added as mixtures of 12 and those mixtures which induced significant changes in a 13C-HSQC spectrum of the protein were then deconvoluted to find the individual binders.
# IL17A [8] = biological target: T3, IL17A; experiment: Isothermal titration calorimetry with IL17A dimer; type: binding; conditions: reverse titration, 50 mM sodium phosphate pH 7.0; read-out: ITC affinity (KD)
# Description: Supplemental Figure 7: Isothermal titration calorimetry of Cmpd 10. Theoretical binding of 1 molecule to a IL17A dimer would result in N of 0.5. Observed stoichiometry was 0.7. 200 µM IL17A (dimer) used injected (reverse titration) to 20 µM Cmpd 10 in 50 mM sodium phosphate pH 7.0.
# [9] = disruption of IL17A-IL17RA-Fc complex formation, read-out: IL17A/IL17RA-Fc AlphaLISA IC50
# T3 sequence (Q16552 24-155): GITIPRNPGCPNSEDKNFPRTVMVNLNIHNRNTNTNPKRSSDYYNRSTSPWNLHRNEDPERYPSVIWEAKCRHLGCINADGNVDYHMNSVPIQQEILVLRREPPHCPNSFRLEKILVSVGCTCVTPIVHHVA
# T1 sequence (Q16552 24-155, one chain of several): as the sequence (Q16552 24-155) above
# T5 sequence (Q16552 34-155 C129S): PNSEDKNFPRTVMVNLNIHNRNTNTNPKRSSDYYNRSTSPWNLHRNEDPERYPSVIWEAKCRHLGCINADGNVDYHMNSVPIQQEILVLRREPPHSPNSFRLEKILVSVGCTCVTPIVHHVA
compound,measurement,setting,value
"O=C(COc1ccccc1CNc1cc(C(=O)O)cc(-c2ccnc3ccccc23)c1)NCCNC(=O)COc1ccccc1CNc1cc(C(=O)O)cc(-c2ccnc3ccccc23)c1 [Cmpd 8, 5,5'-((((((ethane-1,2-diylbis(azanediyl))bis(2-oxoethane-2,1-diyl))bis(oxy))-bis(2,1-phenylene))bis(methylene))bis(azanediyl))bis(3-(quinolin-4-yl)benzoic acid)]",IC50,[1],~51 µM
same,IC50,[2],4.7 µM
same,IC50,IL17A-IL17RA-Fc complex; [9],3.6 µM and ~4 µM
same,Disruption of IL17A-IL17RA interactions in SPR-based assay,[3],could block IL17A receptor interactions; also recorded: showed disruption of IL17A-IL17RA interactions
same,IC50,[4],~54 µM
same,Kd,IL17A [5],0.37 µM
same,Competition for IL17A with FP probe,IL17A [6],full competition
"O=C1CC2(CCCC2)CC(=O)NC(Cc2ccc(NC(=O)C(Cc3ccccc3Cl)NC(=O)Cc3cccc(O)c3)cc2)C(=O)NCCOCCOCCN1 (stereo not drawn) [Cmpd 1, reference compound]",Concentration needed to block cellular signaling,[2]; positive control in cellular assays,~ 3 µM
same,Potency in biochemical assays,IL17A-IL17RA-Fc complex; positive control in biochemical assays,low nM potency
same,Kd,IL17A [5],~0.004 µM
same,Binding efficiency index (BEI),IL17A [5]; from SPR KD and molecular weight,11–13
"O=C(COc1ccccc1CNc1cc(C(=O)O)cc(-c2ccnc3ccccc23)c1)NCCOCCOc1ccccc1CNc1cc(C(=O)O)cc(-c2ccnc3ccccc23)c1 [Cmpd 9, 3-((2-(2-(2-(2-(2-(((3-carboxy-5-(quinolin-4-yl)phenyl)amino)methyl)-phenoxy)acetamido)ethoxy)ethoxy)-benzyl)amino)-5-(quinolin-4-yl)benzoic acid]",IC50,[1],> 70 µM
same,IC50,[2],5.7 µM
same,IC50,IL17A-IL17RA-Fc complex; [9],1.3 µM
same,IC50,[4],~57 µM
same,Kd,IL17A [5],0.21 µM and 0.209 µM
same,Competition for IL17A with FP probe,IL17A [6],full competition
"Clc1ncc(NCc2ccccc2)cc1-c1cccc2ncccc12 [Cmpd 6, N-benzyl-6-chloro-5-(quinolin-5-yl)pyridin-3-amine]",Kd,IL17A [5],~70 µM and 72 µM
C-terminal deletion: IL17A construct (aa 34–148) lacking the final C-terminal residues (aa 149–155),Interaction with IL17RA by SPR,IL17RA,did not productively interact with IL17RA
"c1ccc(CNc2cncc(-c3ccc4[nH]nc(NCCN5CCOCC5)c4c3)c2)cc1 [Cmpd 5, 5-(5-(benzylamino)pyridin-3-yl)-N-(2-morpholinoethyl)-1H-indazol-3-amine]",Kd,IL17A [7],12 µM
"C/C=C/c1cccc2c(N)n[nH]c12 [Cmpd 4, (E)-7-(prop-1-en-1-yl)-1H-indazol-3-amine]",Kd,IL17A [5],> 250 µM
O=C(O)c1cc(NCc2ccccc2OCCOCCOCCOc2ccccc2CNc2cc(C(=O)O)cc(-c3ccnc4ccccc34)c2)cc(-c2ccnc3ccccc23)c1 [Cmpd 10],IC50,[1],> 50 µM
same,IC50,[2],1.3 µM
same,IC50,"IL17A-IL17RA-Fc complex; inhibition of IL17A/IL17RA-Fc interactions, read-out: IL17A/IL17RA-Fc IC50",0.74 µM
same,Kd,IL17A [8],0.044 µM
same,Kd,IL17A [5],0.043 µM and < 0.1 µM
same,IC50,IL17A [6]; unlabeled compound pre-bound to IL17A before addition of FP probe,0.107 µM
